# Results published in US12569509B2, “Method and composition for preventing and treating viral infections” (priority 2017, dated 2026).
# “And” between values parts separate entries of the source, which are not always exact repeats. Equal entries are not always repeated. “Also recorded” adds a separate entry of the source.
# Columns and labels:
# [1] = system: human PBMC; assay: Test compound induced cytokine secretion in human PBMC without LPS, 10 or 26 hours (Phase 1); details: 100 μM, 26 hours, no LPS
# Procedure: Secretion of the cytokines TNF-α (A), IL-1β (B) and IL-6 (C) were measured in supernatant of PBMC cultured in the presence of test compounds using a Luminex platform with the Milliplex MAP Human High Sensitivity T Cell Panel Immunology Multiplex Assay. Results are represented as a mean from 3 separate donors in pg/mL.
# Whole blood was collected from 3 human donors and peripheral blood mononuclear cells (PBMC) were isolated using the Ficoll-Paque density gradient method. PBMC were then plated and left untouched for 2 hours to account for a 2 hours pretreatement period (see below for details), and incubated for 8 or 24 hours in a humidified incubator set to maintain 37° C. with 5% CO2, with different concentrations of LPS as per Table 11 in order to determine the optimal stimulation conditions to detect cytokine release. […] RPMI medium alone or supplemented with 0.1% DMSO (to mimic treatment conditions) were used as negative controls.
# At the end of the incubation period, supernatant samples were recovered and stored at −80° C. until analysis (in duplicate) using a Luminex platform with the Milliplex MAP Human High Sensitivity T Cell Panel Immunology Multiplex Assay (Cat. No. HSTCMAG-28SK) with the following selected cytokines of interest: IL-1, IL-2, IL-6, IFN-g and TNF-α. Each assay was defined by one calibration curve and 2 sets of QCs and the results were expressed as pg/mL.
# [2] = system: human PBMC; assay: LPS stimulated cytokine secretion in human PBMC pretreated with compounds (Phase 2); type: cell-based; design: TNF-α concentration in supernatant / IL-1β concentration in supernatant / IL-6 concentration in supernatant / IL-2 concentration in supernatant / IFN-g concentration in supernatant: unit of the concentration uncertain; details: for IL-1β Mean Fold-Change (Relative to LPS alone) / IL-6 Mean Fold-Change (Relative to LPS alone) / TNF-α Mean Fold-Change (Relative to LPS alone): 1 ng/mL LPS stimulation for 8 hours, means from 3 donors; for IL-2 concentration in supernatant / TNF-α concentration in supernatant / IL-1β concentration in supernatant / IFN-g concentration in supernatant / IL-6 concentration in supernatant: 8-hour 1 ng/mL LPS stimulation; for IL-2 concentration in supernatant: LLOQ = 1.698 pg/mL; for TNF-α concentration in supernatant: LLOQ = 2.018 pg/mL; for IL-1β concentration in supernatant: LLOQ = 2.299 pg/mL; for IFN-g concentration in supernatant: LLOQ = 2.792 pg/mL; for IL-6 concentration in supernatant: LLOQ = 0.831
# [3] = target: T1, RecQ helicase (Escherichia coli, UniProt P15043); assay: Cell-free fluorescence molecular beacon helicase assay; type: biochemical, E. coli; design: Average rate of reaction / Rate (Triplicate): unit: RFU/min; details: for Fluorescence at 35 minutes, Run 2 / Fluorescence at time 0, Run 2: duplicate, listed as H; for Average rate of reaction: mean of triplicate; for Rate (Triplicate): rate of reaction=(F0-F35)/35; for Change in helicase activity compared to the DMSO control: any of the tested concentrations (0.06-200 μg/mL)
# T1 construct: a full-length E. coli helicase, RecQ, was used
# T1 sequence (P15043 whole entry): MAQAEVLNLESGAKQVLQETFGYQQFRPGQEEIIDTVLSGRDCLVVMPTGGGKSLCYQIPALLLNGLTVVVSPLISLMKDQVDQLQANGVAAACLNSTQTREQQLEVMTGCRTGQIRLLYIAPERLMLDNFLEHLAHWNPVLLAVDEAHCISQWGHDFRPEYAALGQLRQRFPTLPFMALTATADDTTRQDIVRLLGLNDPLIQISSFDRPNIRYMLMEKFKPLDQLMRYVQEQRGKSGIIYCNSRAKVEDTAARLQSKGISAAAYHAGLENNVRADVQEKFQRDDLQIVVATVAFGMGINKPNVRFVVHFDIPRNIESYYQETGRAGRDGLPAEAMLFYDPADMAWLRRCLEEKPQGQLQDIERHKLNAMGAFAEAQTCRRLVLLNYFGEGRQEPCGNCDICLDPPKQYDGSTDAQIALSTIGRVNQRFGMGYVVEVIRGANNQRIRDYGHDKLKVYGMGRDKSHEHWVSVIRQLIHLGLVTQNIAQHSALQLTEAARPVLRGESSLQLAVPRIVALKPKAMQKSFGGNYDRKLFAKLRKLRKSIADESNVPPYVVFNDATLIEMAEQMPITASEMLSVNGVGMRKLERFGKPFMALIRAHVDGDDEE
# [4] = TA 0.06 μg/mL (plate column 4, wells A-C)
# [5] = TA 0.2 μg/mL (plate column 5, wells A-C)
# [6] = TA 0.6 μg/mL (plate column 6, wells A-C)
# [7] = TA 2 μg/mL (plate column 7, wells A-C)
# [8] = TA 6 μg/mL (plate column 8, wells A-C)
# [9] = TA 60 μg/mL (plate column 10, wells A-C)
# [10] = TA 200 + Buffer (plate column 12, wells A-C)
structure (smiles),measurement,setting,value
COc1ccc([C@@H]2CC(=O)c3c(O)cc(O[C@@H]4O[C@H](CO[C@@H]5O[C@@H](C)[C@H](O)[C@@H](O)[C@H]5O)[C@@H](O)[C@H](O)[C@H]4O)cc3O2)cc1O [Hesperidin],"Secretion of IL-1β and IL-6, compound alone",[1],"in one donor, secretion of IL-1β, and IL-6 was also observed"
same,IL-1β Mean Fold-Change (Relative to LPS alone),[2]; 10 mM (so in the source),1.14
same,IL-6 Mean Fold-Change (Relative to LPS alone),[2]; 10 mM (so in the source),1.10
same,TNF-α Mean Fold-Change (Relative to LPS alone),[2]; 10 mM (so in the source),0.98
same,IL-1β Mean Fold-Change (Relative to LPS alone),[2]; 100 mM (so in the source),1.30
same,IL-6 Mean Fold-Change (Relative to LPS alone),[2]; 100 mM (so in the source),1.24
same,TNF-α Mean Fold-Change (Relative to LPS alone),[2]; 100 mM (so in the source),1.20
same,Effect on LPS stimulated secretion of IL-1b,"[2]; 200 mM (so in the source), 2 h pretreatment, 1 ng/mL LPS 8 hours",increase; also recorded: appeared to enhance; also recorded: potentiate
same,IL-1β Mean Fold-Change (Relative to LPS alone),[2]; 200 mM (so in the source),1.54
same,IL-6 Mean Fold-Change (Relative to LPS alone),[2]; 200 mM (so in the source),1.25
same,TNF-α Mean Fold-Change (Relative to LPS alone),[2]; 200 mM (so in the source),1.14
same,IL-2 concentration in supernatant,"[2]; Donor 1, 10 (unit uncertain)",<LLOQ
same,TNF-α concentration in supernatant,"[2]; Donor 1, 10 (unit uncertain)",1889.91 pg/mL
same,IL-1β concentration in supernatant,"[2]; Donor 1, 10 (unit uncertain)",3059.18 pg/mL
same,IFN-g concentration in supernatant,"[2]; Donor 1, 10 (unit uncertain)",<LLOQ
same,IL-6 concentration in supernatant,"[2]; Donor 1, 10 (unit uncertain)",1099.07 pg/mL
same,IL-2 concentration in supernatant,"[2]; Donor 1, 100 (unit uncertain)",<LLOQ
same,TNF-α concentration in supernatant,"[2]; Donor 1, 100 (unit uncertain)",2577.7 pg/mL
same,IL-1β concentration in supernatant,"[2]; Donor 1, 100 (unit uncertain)",3955.41 pg/mL
same,IFN-g concentration in supernatant,"[2]; Donor 1, 100 (unit uncertain)",<LLOQ
same,IL-6 concentration in supernatant,"[2]; Donor 1, 100 (unit uncertain)",1441.95 pg/mL
same,IL-2 concentration in supernatant,"[2]; Donor 1, 200 (unit uncertain)",<LLOQ
same,TNF-α concentration in supernatant,"[2]; Donor 1, 200 (unit uncertain)",2290.76 pg/mL
same,IL-1β concentration in supernatant,"[2]; Donor 1, 200 (unit uncertain)",4853.62 pg/mL
same,IFN-g concentration in supernatant,"[2]; Donor 1, 200 (unit uncertain)",<LLOQ
same,IL-6 concentration in supernatant,"[2]; Donor 1, 200 (unit uncertain)",1485.45 pg/mL
same,IL-2 concentration in supernatant,"[2]; Donor 2, 10 (unit uncertain)",<LLOQ
same,TNF-α concentration in supernatant,"[2]; Donor 2, 10 (unit uncertain)",1091.56 pg/mL
same,IL-1β concentration in supernatant,"[2]; Donor 2, 10 (unit uncertain)",2855.56 pg/mL
same,IFN-g concentration in supernatant,"[2]; Donor 2, 10 (unit uncertain)",<LLOQ
same,IL-2 concentration in supernatant,"[2]; Donor 2, 100 (unit uncertain)",<LLOQ
same,TNF-α concentration in supernatant,"[2]; Donor 2, 100 (unit uncertain)",1254.84 pg/mL
same,IL-1β concentration in supernatant,"[2]; Donor 2, 100 (unit uncertain)",2344.12 pg/mL
same,IFN-g concentration in supernatant,"[2]; Donor 2, 100 (unit uncertain)",<LLOQ
same,IL-2 concentration in supernatant,"[2]; Donor 2, 200 (unit uncertain)",<LLOQ
same,TNF-α concentration in supernatant,"[2]; Donor 2, 200 (unit uncertain)",1621.58 pg/mL
same,IL-1β concentration in supernatant,"[2]; Donor 2, 200 (unit uncertain)",3244.42 pg/mL
same,IFN-g concentration in supernatant,"[2]; Donor 2, 200 (unit uncertain)",<LLOQ
same,IL-2 concentration in supernatant,"[2]; Donor 3, 10 (unit uncertain)",<LLOQ
same,TNF-α concentration in supernatant,"[2]; Donor 3, 10 (unit uncertain)",3632.86 pg/mL
same,IL-1β concentration in supernatant,"[2]; Donor 3, 10 (unit uncertain)",3800.6 pg/mL
same,IFN-g concentration in supernatant,"[2]; Donor 3, 10 (unit uncertain)",<LLOQ
same,IL-2 concentration in supernatant,"[2]; Donor 3, 100 (unit uncertain)",<LLOQ
same,TNF-α concentration in supernatant,"[2]; Donor 3, 100 (unit uncertain)",3808.52 pg/mL
same,IL-1β concentration in supernatant,"[2]; Donor 3, 100 (unit uncertain)",4941.84 pg/mL
same,IFN-g concentration in supernatant,"[2]; Donor 3, 100 (unit uncertain)",<LLOQ
same,IL-2 concentration in supernatant,"[2]; Donor 3, 200 (unit uncertain)",<LLOQ
same,TNF-α concentration in supernatant,"[2]; Donor 3, 200 (unit uncertain)",2731.72 pg/mL
same,IL-1β concentration in supernatant,"[2]; Donor 3, 200 (unit uncertain)",4883.06 pg/mL
same,IFN-g concentration in supernatant,"[2]; Donor 3, 200 (unit uncertain)",<LLOQ
same,"Fluorescence at 35 minutes, Run 2",[3]; 0.06 μg/mL,2987 RFU and 3023 RFU
same,"Fluorescence at time 0, Run 2",[3]; 0.06 μg/mL,5870 RFU and 7788 RFU
same,Average rate of reaction,[3]; 0.06 μg/mL,61.47
same,Average rate of reaction,[3]; 0.2 μg/mL,53.5
same,Rate (Triplicate),[3]; 0.2 μg/mL,47.51 and 71.4 and 41.6
same,"Fluorescence at 35 minutes, Run 2",[3]; 0.6 μg/mL,2677 RFU and 2621 RFU
same,"Fluorescence at time 0, Run 2",[3]; 0.6 μg/mL,9523 RFU and 7721 RFU
same,Average rate of reaction,[3]; 0.6 μg/mL,107.9714
same,"Fluorescence at 35 minutes, Run 2",[3]; 2 μg/mL,2624 RFU and 2801 RFU
same,Average rate of reaction,[3]; 2.0 μg/mL,110.1429
same,Rate (Triplicate),[3]; 2.0 μg/mL,108.1714 and 140.8 and 81.46
same,"Fluorescence at 35 minutes, Run 2",[3]; 6 μg/mL,2526 RFU and 2818 RFU
same,"Fluorescence at time 0, Run 2",[3]; 6 μg/mL,8127 RFU and 9570 RFU
same,Average rate of reaction,[3]; 6.0 μg/mL,169.7048
same,"Fluorescence at 35 minutes, Run 2",[3]; 20 μg/mL,3653 RFU and 3927 RFU
same,"Fluorescence at time 0, Run 2",[3]; 20 μg/mL,4464 RFU and 8870 RFU
same,Average rate of reaction,[3]; 20.0 μg/mL,55.09
same,"Fluorescence at 35 minutes, Run 2",[3]; 60 μg/mL,4250 RFU and 4180 RFU
same,"Fluorescence at time 0, Run 2",[3]; 60 μg/mL,4134 RFU and 3133 RFU
same,Average rate of reaction,[3]; 60.0 μg/mL,58.1
same,"Fluorescence at 35 minutes, Run 2",[3]; 200 μg/mL,3913 RFU and 4063 RFU
same,Average rate of reaction,[3]; 200.0 μg/mL,90.4381
same,"Fluorescence at 0:00:00, Run 1",[3]; [4],5759 RFU and 9125 RFU and 10456 RFU
same,"Fluorescence at 0:35:00, Run 1",[3]; [4],5467 RFU and 6877 RFU and 6542 RFU
same,"Fluorescence at 0:00:00, Run 1",[3]; [5],7735 RFU and 8642 RFU and 7853 RFU
same,"Fluorescence at 0:35:00, Run 1",[3]; [5],6072 RFU and 6143 RFU and 6397 RFU
same,"Fluorescence at 0:00:00, Run 1",[3]; [6],7559 RFU and 14137 RFU and 7347 RFU
same,"Fluorescence at 0:35:00, Run 1",[3]; [6],5304 RFU and 6502 RFU and 5900 RFU
same,"Fluorescence at 0:00:00, Run 1",[3]; [7],10359 RFU and 11454 RFU and 8360 RFU
same,"Fluorescence at 0:35:00, Run 1",[3]; [7],6573 RFU and 6526 RFU and 5509 RFU
same,"Fluorescence at 0:00:00, Run 1",[3]; [8],10222 RFU and 10590 RFU and 17264 RFU
same,"Fluorescence at 0:35:00, Run 1",[3]; [8],6164 RFU and 5213 RFU and 8880 RFU
same,"Fluorescence at 0:00:00, Run 1",[3]; [9],10452 RFU and 7252 RFU and 7210 RFU
same,"Fluorescence at 0:35:00, Run 1",[3]; [9],7008 RFU and 6217 RFU and 5588 RFU
same,"Fluorescence at 0:35:00, Run 1","[3]; TA 200 μg/mL (plate column 11, wells A-C)",7231 RFU and 6648 RFU and 7799 RFU
same,"Fluorescence at 0:00:00, Run 1",[3]; [10],10477 RFU and 15660 RFU and 9770 RFU
same,"Fluorescence at 0:35:00, Run 1",[3]; [10],9155 RFU and 9497 RFU and 7774 RFU
same,Change in helicase activity compared to the DMSO control,[3],no observed clear change
same,Change in helicase activity compared to the DMSO control,[3]; listed as hesperidin,no effect
